In PMC4523496 (Molecular psychiatry, 2015):

Assays:
[1] = biological target: T1, MD-2 (Homo sapiens, UniProt Q9Y6Y9); assay: Biophysical ELISA binding assays
T1 sequence (Q9Y6Y9 19-160): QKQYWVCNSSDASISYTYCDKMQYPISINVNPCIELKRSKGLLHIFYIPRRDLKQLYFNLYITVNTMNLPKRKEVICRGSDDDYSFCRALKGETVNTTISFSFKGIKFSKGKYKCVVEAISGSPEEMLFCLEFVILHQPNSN

[2] = system: extracellular dopamine in the NAc; assay: In vivo microdialysis of NAc shell dopamine; design: species or system rat; conditions: for extracellular NAc dopamine, compound alone: cocaine 10 mg/kg systemic, neurotensin 10 nMol or LPS 10 ng intra-VTA; for increase of NAc dopamine concentrations: intra-VTA LPS vs systemic cocaine; for effect on basal NAc dopamine levels: antagonist alone; for effect on intra-VTA neurotensin-induced elevation of NAc dopamine: control for non-specific disruption of neuronal responsiveness
[3] = biological target: T1, MD-2; assay: Bis-ANS displacement assay; format: binding
[4] = system: cocaine conditioned place preference; assay: Conditioned place preference; format: in vivo, rat; conditions: tested drug-free; cocaine 10 mg/kg i.p.
[5] = system: cocaine self-administration; assay: Rat self-administration; format: in vivo; conditions: pre-session (+)-naltrexone s.c.
[6] = system: IL-1β mRNA in VTA, NAc, vmPFC; assay: IL-1β mRNA in brain micro-punches after systemic drug; format: in vivo, rat; conditions: (+)-naloxone […] s.c. twice; 30 min and 2 h after cocaine 10 mg/kg
[7] = format: in vivo, rat; conditions: pretreatment […] s.c. twice; cocaine 10 mg/kg i.p.; hippocampus
[8] = system: isolated neonatal microglial cells; assay: IL-1β mRNA expression in isolated neonatal microglial cell culture; conditions: neonatal microglia; (+)-naloxone 1, 10, 100 µM co-treatment

lipopolysaccharide [LPS]
competition with cocaine for binding to MD-2 (ELISA) ([1]; varying concentrations of LPS added): displaced cocaine binding to MD-2
extracellular NAc dopamine, compound alone [2]: increased
increase of NAc dopamine concentrations [2]: < 200%

COC(=O)[C@H]1[C@@H](OC(=O)c2ccccc2)C[C@@H]2CC[C@H]1N2C [Cocaine]
Ki [3]: 23.9 ± 5.9 µM
binding to human MD-2 (ELISA) ([1]; aptamer-immobilized cocaine): bound to human MD-2 in a concentration-dependent manner
extracellular NAc dopamine, compound alone [2]: robust increases in extracellular NAc dopamine
increase of NAc dopamine concentrations [2]: 300%
conditioned place preference, compound alone [4]: produces place preference

CN(C)c1ccc(O)c2c1C[C@H]1C[C@H]3[C@H](N(C)C)C(O)=C(C(N)=O)C(=O)[C@@]3(O)C(O)=C1C2=O [minocycline]
conditioned place preference, compound alone [4]: neither water nor minocycline altered place preference

O=C1CC[C@]2(O)[C@@H]3Cc4ccc(O)c5c4[C@]2(CCN3CC2CC2)[C@@H]1O5 [(+)-naltrexone]
effect on food-maintained responding [5]: failed to suppress responding to food
effect on responding for cocaine (self-administration) ([5]; fixed-ratio dose-response): suppressed responding for cocaine at the peak cocaine doses

neurotensin
extracellular NAc dopamine, compound alone [2]: induced increased NAc dopamine

C=CCN1CC[C@]23c4c5ccc(O)c4O[C@H]2C(=O)CC[C@]3(O)[C@H]1C5 [(+)-Naloxone]
effect on cocaine-induced increases of intra-VTA IL1β mRNA [6]: blocked
effect on basal NAc dopamine levels [2]: did not influence basal dopamine levels
effect on intra-VTA neurotensin-induced elevation of NAc dopamine [2]: unaltered
conditioned place preference, compound alone [4]: produced no appetitive or aversive CPP
effect on brain cocaine concentrations [7]: not altered
effect on cocaine-induced upregulation of IL-1β mRNA [8]: blocked

IL1ra: IL-1 receptor antagonist
effect on basal NAc dopamine levels [2]: did not alter basal DA levels in the NAc
effect on intra-VTA neurotensin-induced elevation of NAc dopamine [2]: did not alter neurotensin-induced dopamine elevations in the NAc
